Patent publication US20260224563A1, “CRYSTALLINE FORMS OF 6-(3-((5-CHLORO-2-METHOXYPYRIDINE)-3-SULFONAMIDO)-2,6-DIFLUOROPHENYL)-N-METHYLIMIDAZO[1,5-A]PYRAZINE-1-CARBOXAMIDE AND METHODS FOR USING THE SAME” (HIBERCELL, INC., priority 2023, published 2026)
Structures can show the parent of a compound that is named as a salt.

Assays:
[1] = Slurry study of potassium salt Form III in organic solvents and water (XRPD); assay type: physicochemical
Protocol: A slurry study of Form III of the potassium salt in an array of solvents was conducted at 25° C. and 50° C. Approximately 20 mg of Form III of the potassium salt was suspended in 0.5 mL of a solvent (EtOH, IPA, NBA, MEK, acetone, MTBE, EtOAc, IPAc, heptane, DCM, THE, MeCN, and water) and stirred at 25° C. or 50° C. for seven days. Then, the solid sample was collected by vacuum filtration and was analyzed by XRPD.

[2] = as above; assay type: physicochemical; conditions: for Result at 3 days (XRPD): slurry in THF
[3] = Dynamic vapor sorption (DVS); assay type: physicochemical; conditions: for DVS weight gain: 25° C., listed as Form III of the potassium salt
Protocol: Moisture sorption/desorption data was collected on a Vsorp Dynamic Moisture Sorption Analyzer (ProUmid GmbH & Co. KG, Germany). The sample was placed into a tared sample chamber and automatically weighed.
• Equilibrium Condition: 0.01%/40 min • Time between weighing cycles: 10 minutes • Minimum time per climate cycle: 50 minutes • Maximum time per climate cycle: 2.0 hour • Balanced condition: 25° C. at 60% […] for 4 hours • Sample temperature: 25° C. • Adsorption: 70, 80, 90 • Desorption: 80, 70, 60, 50, 40, 30, 20, 10, 0 • Adsorption: 10, 20, 30, 40, 50, 60

[4] = Solubility in simulated biological fluid (FaSSGF and FaSSIF) at 37° C., HPLC; pH of filtrate, XRPD of filter cake; assay type: physicochemical; conditions: for times more soluble than the free acid (Form II): 0.5-hour mark; for pH (0 h) / Concentration / pH (24 h) / XRPD (filter cake, crystal form): 37° C.; for Concentration / pH (24 h) / XRPD (filter cake, crystal form): listed as K salt Form III; for pH (24 h): filtrate; for XRPD (filter cake, crystal form): up to 24 hours
Protocol: (§1) Approximately between 15 mg and 24 mg of sample was suspended in 5 mL or 8 mL of FaSSGF or FaSSIF, respectively. The resulting suspension was shaken at 700 rpm with a QQMSC-100 shaker at 37° C. The suspension was sampled and filtered at certain time intervals, which was achieved by sampling 1000 μL of each suspension which was then filtered and diluted, diluting the resulting filtrate for HPLC analysis to assess solubility. The pH of the filtrate was measured, and the filter cake was analyzed by XRPD.
as §1, with “Approximately” for “Approximately between”, “mg to” for “mg and”, “5” for “5 mL”, “suspension” for “suspension which”, “was” for “was then”
Approximately 15 mg to 24 mg of sample was suspended in 5 or 8 mL of FaSSGF or FaSSIF, respectively. The resulting suspension was shaken at 700 rpm with a QQMSC-100 shaker at 37° C. The suspension was sampled and filtered in certain time interval, which was achieved by sampling 1000 μL of each suspension was filtered and diluted, diluting the resulting filtrate for HPLC analysis to assess solubility. The pH of the filtrate was measured, and the filter cake was analyzed by XRPD.

[5] = Mechanical (grinding) and tableting treatment of Form III of the potassium salt (XRPD); assay type: physicochemical
Protocol: Form III of the potassium salt was ground manually (e.g., using a mortar and pestle) for 5 minutes. The ground sample was then analyzed by XRPD. No change in the crystal form was observed.
Tableting treatment of Form III of the potassium salt was conducted at 35 MPa pressure for 10 seconds using a tablet machine (HY-12, Tianjin Tianguang Optical Instrument Co., Ltd). The resulting solid was analyzed by XRPD. No change in the crystal form was observed after the tableting treatment. However, the crystallinity of Form III of the potassium salt decreased after the pressure test.

[6] = Pharmacokinetics of HC-7366 in male and female beagle dogs following IV and oral administration of HC-7366-K (plasma and urine, LC-MS/MS); assay type: in vivo, Beagle Dog; set-up: AUC(0-t)/D: unit not given here

In the case of CNC(=O)c1ncn2cc(-c3c(F)ccc(NS(=O)(=O)c4cc(Cl)cnc4OC)c3F)ncc12 [Potassium salt Form III, 6-(3-((5-chloro-2-methoxypyridine)-3-sulfonamido)-2,6-difluorophenyl)-N-methylimidazo[1,5-a]pyrazine-1-carboxamide], the “Result at 3 days (XRPD)” value ([1]; slurry in Acetone, 25° C.) is reported as “Potassium salt Form III”, the “Result at 7 days (XRPD)” value ([1]; slurry in Acetone, 25° C.) is reported as “Potassium salt Form III” and the “Result at 3 days (XRPD)” value ([1]; slurry in DCM, 25° C.) is reported as “Potassium salt Form III”. The “Result at 7 days (XRPD)” value ([1]; slurry in DCM, 25° C.) was “Potassium salt Form III”, the “Result at 3 days (XRPD)” value ([1]; slurry in DCM, 50° C.) was “Potassium salt Form III” and the “Result at 7 days (XRPD)” value ([1]; slurry in DCM, 50° C.) was “Potassium salt Form III”. The “Result at 3 days (XRPD)” value ([1]; slurry in EtOAc, 25° C.) was “Potassium salt Form III”, the “Result at 7 days (XRPD)” value ([1]; slurry in EtOAc, 25° C.) was “Potassium salt Form III” and the “Result at 3 days (XRPD)” value ([1]; slurry in EtOAc, 50° C.) was “Potassium salt Form III”. The “Result at 7 days (XRPD)” value ([1]; slurry in EtOAc, 50° C.) was “Potassium salt Form III”, the “Result at 3 days (XRPD)” value ([1]; slurry in Heptane, 25° C.) was “Potassium salt Form III” and the “Result at 7 days (XRPD)” value ([1]; slurry in Heptane, 25° C.) was “Potassium salt Form III”. For the same molecule, the “Result at 3 days (XRPD)” value ([1]; slurry in Heptane, 50° C.) was “Potassium salt Form III”, the “Result at 7 days (XRPD)” value ([1]; slurry in Heptane, 50° C.) was “Potassium salt Form III” and the “Result at 3 days (XRPD)” value ([1]; slurry in IPA, 25° C.) was “Potassium salt Form III”. For the same molecule, the “Result at 7 days (XRPD)” value ([1]; slurry in IPA, 25° C.) was “Potassium salt Form III”, the “Result at 3 days (XRPD)” value ([1]; slurry in IPA, 50° C.) was “Potassium salt Form I” and the “Result at 7 days (XRPD)” value ([1]; slurry in IPA, 50° C.) was “Potassium salt Form I”. The “Result at 3 days (XRPD)” value ([1]; slurry in IPAc, 25° C.) was “Potassium salt Form III”, the “Result at 7 days (XRPD)” value ([1]; slurry in IPAc, 25° C.) was “Potassium salt Form III” and the “Result at 3 days (XRPD)” value ([1]; slurry in IPAc, 50° C.) was “Potassium salt Form III”. For the same molecule, the “Result at 7 days (XRPD)” value ([1]; slurry in IPAc, 50° C.) was “Potassium salt Form III”, the “Result at 3 days (XRPD)” value ([1]; slurry in MEK, 25° C.) was “Potassium salt Form III” and the “Result at 7 days (XRPD)” value ([1]; slurry in MEK, 25° C.) was “Potassium salt Form III”. For the same molecule, the “Result at 3 days (XRPD)” value ([1]; slurry in MEK, 50° C.) was “Potassium salt Form III”, the “Result at 7 days (XRPD)” value ([1]; slurry in MEK, 50° C.) was “Potassium salt Form III” and the “Result at 3 days (XRPD)” value ([1]; slurry in MTBE, 25° C.) was “Potassium salt Form III”. The “Result at 7 days (XRPD)” value ([1]; slurry in MTBE, 25° C.) was “Potassium salt Form III”, the “Result at 3 days (XRPD)” value ([1]; slurry in MTBE, 50° C.) was “Potassium salt Form III” and the “Result at 7 days (XRPD)” value ([1]; slurry in MTBE, 50° C.) was “Potassium salt Form III”. For the same molecule, the “Result at 3 days (XRPD)” value ([1]; slurry in MeCN, 25° C.) was “Potassium salt Form III”, the “Result at 7 days (XRPD)” value ([1]; slurry in MeCN, 25° C.) was “Potassium salt Form III” and the “Result at 3 days (XRPD)” value ([1]; slurry in MeCN, 50° C.) was “Potassium salt Form I”. The “Result at 7 days (XRPD)” value ([1]; slurry in MeCN, 50° C.) was “Potassium salt Form I”, the “Result at 3 days (XRPD)” value ([1]; slurry in NBA, 25° C.) was “Potassium salt Form III” and the “Result at 7 days (XRPD)” value ([1]; slurry in NBA, 25° C.) was “Potassium salt Form III”. For the same molecule, the “Result at 3 days (XRPD)” value ([1]; slurry in NBA, 50° C.) was “Potassium salt Form III”, the “Result at 7 days (XRPD)” value ([1]; slurry in NBA, 50° C.) was “Potassium salt Form III” and the “Result at 7 days (XRPD)” value ([1]; slurry in THF, 25° C.) was “Potassium salt Form III”. The “Result at 7 days (XRPD)” value ([1]; slurry in THF, 50° C.) was “Potassium salt Form III”, the “Result at 3 days (XRPD)” value ([2]; 25° C.) was “Potassium salt Form III” and the “Result at 3 days (XRPD)” value ([2]; 50° C.) was “Potassium salt Form III”. The “Result (XRPD)” value ([2]; slurry in Water, 25° C., 5 days, repeated aqueous slurry experiments) was “Potassium salt Form III (5 days)”, the DVS weight gain ([3]; 0 to 80% relative humidity) was “around 0.18%” and the DVS weight gain ([3]; 0 to 90% relative humidity) was roughly 0.23%. The DVS weight gain ([3]; 60 to 80% relative humidity) was “around 0.13%”, the “Hygroscopicity (DVS)” value ([3]; class by weight gain to 80% relative humidity) was “non-hygroscopic (non-hygroscopic may be defined as a <0.2% weight gain to 80% relative humidity)” and the “times more soluble than the free acid (Form II)” value ([4]; FaSSGF) was “about 230 times”. For the same molecule, the “pH (0 h)” value ([4]; FaSSGF) was 1.60, the Concentration ([4]; FaSSGF, 0.5 h) was 46.8 µg/mL and the Concentration ([4]; FaSSGF, 2.0 h) was 4.6 µg/mL. For the same molecule, the “pH (24 h)” value ([4]; FaSSGF) was 1.66, the “XRPD (filter cake, crystal form)” value ([4]; FaSSGF) was “Changed” and the “times more soluble than the free acid (Form II)” value ([4]; FaSSIF) was “about 100 times”. The “pH (0 h)” value ([4]; FaSSIF) was 6.50, the Concentration ([4]; FaSSIF, 0.25 h) was 155 µg/mL and the Concentration ([4]; FaSSIF, 0.5 h) was 164 µg/mL. It also gave a Concentration ([4]; FaSSIF, 0.75 h) of 160 µg/mL, a Concentration ([4]; FaSSIF, 1.0 h) of 155 µg/mL and a Concentration ([4]; FaSSIF, 2.0 h) of 14.5 µg/mL. For the same molecule, the “pH (24 h)” value ([4]; FaSSIF) was 6.83, the “XRPD (filter cake, crystal form)” value ([4]; FaSSIF) was “Changed” and the Crystallinity ([5]; after tableting treatment at 35 MPa pressure for 10 seconds) was “decreased”. The “Change in the crystal form (XRPD)” value ([5]; ground manually for 5 minutes) was “No change” and the “Change in the crystal form (XRPD)” value ([5]; tableting treatment at 35 MPa pressure for 10 seconds) was “No change”.
With CNC(=O)c1ncn2cc(-c3c(F)ccc(NS(=O)(=O)c4cc(Cl)cnc4OC)c3F)ncc12 [HC-7366-K, 6-(3-((5-chloro-2-methoxypyridine)-3-sulfonamido)-2,6-difluorophenyl)-N-methylimidazo[1,5-a]pyrazine-1-carboxamide] the “AUC(0-t)/D” value ([6]; Female Beagle dog, IV 0.5 mg/kg, mean n = 3) was 162284, the t1/2 ([6]; Male Beagle dogs, IV 0.5 mg/kg, HC-7366 in plasma, mean n = 3) was 14 h and the clearance ([6]; dog, plasma, male beagle dogs, intravenous 0.5 mg/kg, read-out: Clearance (CL)) was 6 mL/h/kg. The Vd ([6]; dog, plasma, male beagle dogs, intravenous 0.5 mg/kg, read-out: volume of distribution at steady state (Vss)) was 0.107 L/kg and the CL renal ([6]; dog, urine and plasma, female Beagle dogs, intravenous 0.5 mg/kg, read-out: Renal Clearance) was 0.0066 mL/h/kg.
